Experimental data: patent US20050054587A1, “Novel therapeutic indication of azithromycin for treatment of non-infective inflamatory diseases” (priority 2001, published 2005)

Columns and labels:
Type in all cases: in vivo, human
[1] = test system: β-glucuronidase; experiment: β-glucuronidase activity in neutrophil (PMN) lysates, fluorimetric; settings: healthy volunteers; for β-glucuronidase (PMN): azithromycin 3×500 mg, baseline 4.12 ± 2.7
Description: (§1) A trial on healthy volunteers was conducted and the influence of azithromycin given in a dosage of 3×500 mg on selected inflammation-relevant parameters was followed up.
(§2) Each subject received two standard 250 mg capsules of azithromycin (Sumamed®, PLIVA Zagreb) on three consecutive days. Immediately before the treatment and 2 h and 30 min, 24 h and 28 days after the third and last dose of azithromycin blood was collected from the cubital vein into EDTA-containing tubes. Aliquots were taken for cell counting, smear preparation, polymorphonuclear cell and serum isolation.
(§3) Glycosidases are enzymes that catalyse hydrolysis of glycosidic bonds of oligosacharides and other glycosides. They are specific to the glycosidic part of substrate molecule. N-acetyl-β-D-glucosaminidase (NAGA) and β-glucuronidase are such enzymes. They are lysosomal enzymes, both located in azurophilic (primary; peroxidase-positive) granules of neutrophils. Since degranulation of neutrophils is present during inflammation, many authors choose these enzymes as markers of degranulation and for estimation of neutrophil reactivity. The catalytic concentration of both enzymes in serum and in neutrophil lysates was determined using the fluorimetric method described by O'Brien et al. (New Engl. J. Med. (1970) 283: 15-20) for NAGA and Glaser & Sly (J. Lab. Clin. Med. (1973) 82: 969) for β-glucuronidase.

[2] = test system: granulocytes; experiment: Apoptotic cells by morphology of blood smears; settings: healthy volunteers, azithromycin 3×500 mg, baseline 0.333 ± 0.655
Description: as §1, §2
Three-day administration of azithromycin exerted a delayed pro-apoptotic effect on granulocytes, as indicated by morphology of blood smears. The number of apoptotic cells counted increased continuously after the three day dosing with azithromycin, achieving statistical significance 28 days after the last dose.

[3] = test system: β-glucuronidase; experiment: β-glucuronidase activity in serum, fluorimetric; settings: healthy volunteers; for β-glucuronidase (serum): azithromycin 3×500 mg, baseline 2.88 ± 0.7
Description: as §1, §2, §3

[4] = test system: glutathione peroxidase (GSHPx); experiment: Glutathione peroxidase activity in PMN lysates (RANSEL kit); settings: healthy volunteers, azithromycin 3×500 mg, baseline 5.3 ± 2.0
Description: as §1, §2
Cellular glutathione peroxidase (GSHPx) is a tetrameric protein in which each of the four identical subunits contains one atom of selenium (Se) in the form of selenocysteine at the active site (Misso et al., J. Leukoc. Biol. (1998), 63: 124-130). GSHPx plays a role in H202 detoxification and converts lipid hydroperoxides to nontoxic alcohols (Akkus et al., Clin. Chim. Acta (1996), 244: 221-227); Urban et al., Biomed & Pharmacother. (1997), 51: 388-390). In this study, in healthy volunteers treated with azithromycin alterations in the PMN intracellular GSHPx activity were determined using the commercially available kit RANSEL (Randox Laboratories). GSHPx catalyses the oxidation of glutathione by cumene hydroperoxide. In the presence of glutathione reductase and NADPH the oxidised glutathione is immediately converted to the reduced form with a concomitant oxidation of NADPH to NADP^+. The decrease in absorbance at 340 nm is measured.

[5] = test system: sVCAM; experiment: Serum sVCAM concentration, ELISA; settings: healthy volunteers, azithromycin 3×500 mg, baseline 13.59 ± 2.90
Description: as §1, §2
For quantitative determination of serum concentration of human sVCAM, an ELISA kit was used (R&D systems, UK)

[6] = test system: N-acetyl-β-D-glucosaminidase (NAGA); experiment: NAGA activity in serum, fluorimetric; settings: healthy volunteers; for NAGA (serum): azithromycin 3×500 mg, baseline 9.16 ± 1.6
Description: as §1, §2, §3

[7] = test system: myeloperoxidase (MPO); experiment: MPO enzyme protein by ELISA in neutrophil lysates; settings: healthy volunteers, azithromycin 3×500 mg, baseline 54.22 ± 12.61
Description: as §1, §2
The activity of MPO was assessed from the intensity of staining of neutrophils in blood smears and in cell lysates by ELISA. After fixation in ethanol-formaldehyde, smears were incubated in a substrate solution containing hydrogen peroxide and benzidine (SIGMA). After incubation, smears were counterstained with Giemsa solution. MPO value positivity_of 100 granulocytes was evaluated and scored from 0 to 4+ on the basis of the intensity of the precipitated dye in cytoplasm. Therefore, the value of the score could be from 0 to 400. Normal values of score range (290-390) were taken from this study before azithromycin administration. MPO activity was also evaluated on the digital image of smear taken with a digital camera under the high magnification (×1000) of light microscope. MPO activities in blood smear neutrophils decreased from 2 h and 30 min to 24 h after the last azithromycin dose and returned to baseline after 28 days (Table 1). The change in neutrophil enzyme protein followed the same pattern as that in intracellular enzyme activity, decreasing from 2 h and 30 min to 24 h after the last dose of azithromycin and returning to baseline after 28 days. […] Degranulation presented with lower MPO neutrophil density determined_with cytochemistry was associated with lower MPO ELISA concentrations in neutrophil lysates.
Proteins in PMN samples were determined according to the method of Bradford (Anal. Biochem. (1976) 72: 248-254) using bovine serum albumin as a standard.

[8] = test system: IL-1; experiment: Serum IL-1 concentration, ELISA; settings: healthy volunteers, azithromycin 3×500 mg, baseline 0.291 ± 0.11
Description: as §1, §2
Cytokine and chemokine concentrations were determined using ELISA kits. […] Rapid and pronounced decreases in the plasma concentrations of the neutrophil-stimulating chemokine, IL-8, and GR0-α were observed 2 h and 30 min and 24 h after the last dose of azithromycin (Table 1. The concentration of IL-8 returned essentially to baseline after 28 days, while that of GRO-[…] was decreased at this time.

[9] = test system: myeloperoxidase (MPO); experiment: Myeloperoxidase density on digital image of blood smear, healthy volunteer trial; settings: healthy volunteers, azithromycin 3×500 mg, baseline 105 ± 13
Description: as §1, §2
The activity of MPO was assessed from the intensity of staining of neutrophils in blood smears and in cell lysates by ELISA. After fixation in ethanol-formaldehyde, smears were incubated in a substrate solution containing hydrogen peroxide and benzidine (SIGMA). After incubation, smears were counterstained with Giemsa solution. MPO value positivity_of 100 granulocytes was evaluated and scored from 0 to 4+ on the basis of the intensity of the precipitated dye in cytoplasm. Therefore, the value of the score could be from 0 to 400. Normal values of score range (290-390) were taken from this study before azithromycin administration. MPO activity was also evaluated on the digital image of smear taken with a digital camera under the high magnification (×1000) of light microscope. MPO activities in blood smear neutrophils decreased from 2 h and 30 min to 24 h after the last azithromycin dose and returned to baseline after 28 days (Table 1). The change in neutrophil enzyme protein followed the same pattern as that in intracellular enzyme activity, decreasing from 2 h and 30 min to 24 h after the last dose of azithromycin and returning to baseline after 28 days. Both methodological approaches of MPO determination confirmed each other. Degranulation presented with lower MPO neutrophil density determined_with cytochemistry was associated with lower MPO ELISA concentrations in neutrophil lysates.

CC[C@H]1OC(=O)[C@H](C)[C@@H](O[C@H]2C[C@@](C)(OC)[C@@H](O)[C@H](C)O2)[C@H](C)[C@@H](O[C@@H]2O[C@H](C)C[C@H](N(C)C)[C@H]2O)[C@](C)(O)C[C@@H](C)CN(C)[C@H](C)[C@@H](O)[C@]1(C)O [azithromycin, 9-deoxo-9-dihydro-9a-methyl-9a-aza-9a-homoerythromycin A]
decrease of activities of β-glucuronidase in PMN compared to initial values ([1]; 3×500 mg, 24 hours): about 50% | β-glucuronidase activity in PMN higher compared to the initial values ([1]; 3×500 mg, 28 days later): about 300% | decrease of activities of β-glucuronidase in PMN compared to initial values ([1]; 3×500 mg, after 2 h and 30 min): about 20% | β-glucuronidase (PMN) ([1]; 2 h and 30 min after last dose): 3.21 ± 2.3 nmol × 10^−6 cells × min^−1 | β-glucuronidase (PMN) ([1]; 24 hours after last dose): 1.58 ± 0.4 nmol × 10^−6 cells × min^−1 | β-glucuronidase (PMN) ([1]; 28 days after last dose): 15.37 ± 11.4 nmol × 10^−6 cells × min^−1 | APOPTOSIS (WBC) ([2]; 2 h and 30 min after last dose): 0.833 ± 1.029 apoptopic cells/1000 WBC | APOPTOSIS (WBC) ([2]; 24 hours after last dose): 1.417 ± 1.240 apoptopic cells/1000 WBC | APOPTOSIS (WBC) ([2]; 28 days after last dose): 2.583 ± 2.02 apoptopic cells/1000 WBC | change of activity of β-glucuronidase in serum ([3]; 3×500 mg, during the first 24 hours after the last dose): did not show any changes | β-glucuronidase (serum) ([3]; 2 h and 30 min after last dose): 3.01 ± 0.6 µmol/L/min | β-glucuronidase (serum) ([3]; 24 hours after last dose): 2.95 ± 0.5 µmol/L/min | β-glucuronidase (serum) ([3]; 28 days after last dose): 3.93 ± 1.2 µmol/L/min | GLUTATHION PEROXIDASE (PMN) ([4]; 2 h and 30 min after last dose): 5.3 ± 2.9 mU/10^6PMN | GLUTATHION PEROXIDASE (PMN) ([4]; 24 hours after last dose): 1.6 ± 1.3 mU/10^6PMN | GLUTATHION PEROXIDASE (PMN) ([4]; 28 days after last dose): 8.0 ± 5.2 mU/10^6PMN | sV-CAM (serum) ([5]; 2 h and 30 min after last dose): 12.21 ± 4.12 ng/mL | sV-CAM (serum) ([5]; 24 hours after last dose): 10.29 ± 2.12 ng/mL | sV-CAM (serum) ([5]; 28 days after last dose): 10.74 ± 2.05 ng/mL | increase of activity of NAGA in serum vs initial values ([6]; 3×500 mg, 2 h and 30 min after the last dose): about 30% | activity of NAGA in serum higher than the initial values ([6]; 3×500 mg, 24 hours after the last dose): approximately 50% | serum NAGA values higher than initial values ([6]; 3×500 mg, 28 days after the last dose): 70% | NAGA (serum) ([6]; 2 h and 30 min after last dose): 11.52 ± 2.2 µmol/L/min | NAGA (serum) ([6]; 24 hours after last dose): 13.7 ± 1.5 µmol/L/min | NAGA (serum) ([6]; 28 days after last dose): 14.87 ± 1.9 µmol/L/min | myeloperoxidase (PMN) ([7]; 2 h and 30 min after last dose): 70.85 ± 19.91 μg/mg protein | myeloperoxidase (PMN) ([7]; 24 hours after last dose): 26.74 ± 2.51 μg/mg protein | myeloperoxidase (PMN) ([7]; 28 days after last dose): 70.01 ± 17.62 μg/mg protein | IL-1 (serum) ([8]; 2 h and 30 min after last dose): 0.533 ± 0.15 pg/mL | IL-1 (serum) ([8]; 24 hours after last dose): 1.07 ± 0.19 pg/mL | IL-1 (serum) ([8]; 28 days after last dose): 0.29 ± 0.20 pg/mL | myeloperoxidase (density) ([9]; 2 h and 30 min after last dose): 130 ± 16 | myeloperoxidase (density) ([9]; 24 hours after last dose): 131 ± 17 | myeloperoxidase (density) ([9]; 28 days after last dose): 115 ± 19
